Converted amounts (≈) assume the structure as drawn.
Key:
[1] = molecular target: Alcohol dehydrogenase class-3 (Rattus norvegicus, UniProt P12711); test: Inhibition of rat GSNOR assessed as reduction in NADH consumption after 3 mins by spectrophotometric analysis
[2] = Metabolic stability of human liver microsomes assessed as parent compound remaining at 0.1 uM after 60 mins in presence of NADPH by LC/MS/MS analysis; assay type: ADME, microsome; details: read-out: Stability
[3] = Metabolic stability of rat liver microsomes assessed as parent compound remaining at 0.1 uM after 60 mins in presence of NADPH by LC/MS/MS analysis; assay type: ADME, microsome; details: read-out: Stability
[4] = Metabolic stability of mouse liver microsomes assessed as parent compound remaining at 0.1 uM after 60 mins in presence of NADPH by LC/MS/MS analysis; assay type: ADME, microsome; details: read-out: Stability
CYP2D6 = CYP2D6 (Homo sapiens, UniProt P10635); test: Inhibition of CYP2D6 in human liver microsomes at 10 uM after 20 mins in presence of NADPH by LC/MS/MS analysis relative to control; assay type: ADME; details: liver microsomes
Chain of CYP2D6 (P10635 whole entry): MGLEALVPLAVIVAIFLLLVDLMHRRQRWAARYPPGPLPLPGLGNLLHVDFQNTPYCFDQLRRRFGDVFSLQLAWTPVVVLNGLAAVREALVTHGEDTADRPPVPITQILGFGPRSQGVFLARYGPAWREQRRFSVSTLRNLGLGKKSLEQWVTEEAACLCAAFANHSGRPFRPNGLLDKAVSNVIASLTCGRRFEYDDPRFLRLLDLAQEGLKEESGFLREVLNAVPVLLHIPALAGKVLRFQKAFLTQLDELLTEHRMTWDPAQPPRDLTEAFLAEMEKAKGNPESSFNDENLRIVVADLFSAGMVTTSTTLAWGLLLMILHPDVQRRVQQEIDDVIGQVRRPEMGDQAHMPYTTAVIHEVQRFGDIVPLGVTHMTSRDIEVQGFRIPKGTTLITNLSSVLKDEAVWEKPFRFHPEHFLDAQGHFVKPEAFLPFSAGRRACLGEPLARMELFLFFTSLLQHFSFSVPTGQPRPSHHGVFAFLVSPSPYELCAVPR

CYP3A4 = CYP3A4 (Homo sapiens, UniProt P08684); test: Inhibition of CYP3A4 in human liver microsomes at 10 uM after 20 mins in presence of NADPH by LC/MS/MS analysis relative to control; assay type: ADME; details: liver microsomes
Chain of CYP3A4 (P08684 whole entry): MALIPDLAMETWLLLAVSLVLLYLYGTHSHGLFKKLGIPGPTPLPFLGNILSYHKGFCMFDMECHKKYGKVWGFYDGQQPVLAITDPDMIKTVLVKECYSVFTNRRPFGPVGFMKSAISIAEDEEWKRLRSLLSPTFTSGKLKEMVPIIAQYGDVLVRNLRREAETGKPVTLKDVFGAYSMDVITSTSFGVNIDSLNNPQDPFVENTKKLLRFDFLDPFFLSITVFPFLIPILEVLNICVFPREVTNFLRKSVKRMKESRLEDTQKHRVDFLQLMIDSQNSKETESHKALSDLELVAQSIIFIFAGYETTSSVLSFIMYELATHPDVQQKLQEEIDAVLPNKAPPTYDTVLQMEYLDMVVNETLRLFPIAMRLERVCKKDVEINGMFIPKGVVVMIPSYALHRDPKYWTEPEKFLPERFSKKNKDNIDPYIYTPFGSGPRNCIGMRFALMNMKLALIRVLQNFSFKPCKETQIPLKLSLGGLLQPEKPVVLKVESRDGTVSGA

CYP2C9 = CYP2C9 (Homo sapiens, UniProt P11712); test: Inhibition of CYP2C9 in human liver microsomes at 10 uM after 20 mins in presence of NADPH by LC/MS/MS analysis relative to control; assay type: ADME
Chain of CYP2C9 (P11712 whole entry): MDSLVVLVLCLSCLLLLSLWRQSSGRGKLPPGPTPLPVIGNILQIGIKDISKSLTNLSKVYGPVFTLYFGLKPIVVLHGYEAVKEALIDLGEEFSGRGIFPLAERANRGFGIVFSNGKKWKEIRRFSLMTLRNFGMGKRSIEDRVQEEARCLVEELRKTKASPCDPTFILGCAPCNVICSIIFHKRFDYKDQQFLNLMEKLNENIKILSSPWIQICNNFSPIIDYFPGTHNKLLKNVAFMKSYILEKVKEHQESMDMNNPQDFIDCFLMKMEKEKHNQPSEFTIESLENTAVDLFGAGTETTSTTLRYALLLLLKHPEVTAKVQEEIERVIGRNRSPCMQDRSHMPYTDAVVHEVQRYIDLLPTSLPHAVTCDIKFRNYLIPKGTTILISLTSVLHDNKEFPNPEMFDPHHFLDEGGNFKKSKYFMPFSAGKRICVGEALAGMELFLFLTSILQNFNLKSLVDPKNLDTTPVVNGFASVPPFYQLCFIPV

CYP2C19 = CYP2C19 (Homo sapiens, UniProt P33261); test: Inhibition of CYP2C19 in human liver microsomes at 10 uM after 40 mins in presence of NADPH by LC/MS/MS analysis relative to control; assay type: ADME
Chain of CYP2C19 (P33261 whole entry): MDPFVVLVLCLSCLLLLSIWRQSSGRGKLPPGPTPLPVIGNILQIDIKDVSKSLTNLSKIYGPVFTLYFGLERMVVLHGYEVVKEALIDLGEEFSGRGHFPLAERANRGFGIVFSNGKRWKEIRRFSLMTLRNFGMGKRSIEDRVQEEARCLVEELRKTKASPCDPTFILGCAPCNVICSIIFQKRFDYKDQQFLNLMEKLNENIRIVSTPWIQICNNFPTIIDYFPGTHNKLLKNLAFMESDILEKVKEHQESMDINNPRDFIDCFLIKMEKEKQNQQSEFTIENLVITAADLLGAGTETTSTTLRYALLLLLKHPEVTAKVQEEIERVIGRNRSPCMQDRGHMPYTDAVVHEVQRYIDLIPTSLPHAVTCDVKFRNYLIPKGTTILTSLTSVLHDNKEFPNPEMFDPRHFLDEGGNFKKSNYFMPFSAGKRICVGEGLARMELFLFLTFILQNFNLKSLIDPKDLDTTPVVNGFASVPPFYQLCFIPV

[5] = Clearance in C57/BL6 mouse at 3 mg/kg, iv; assay type: ADME, organism-based; details: in vivo
[6] = Volume of distribution in C57/BL6 mouse at 3 mg/kg, iv; assay type: ADME, organism-based; details: in vivo, read-out: Vz
[7] = Half life in C57/BL6 mouse at 3 mg/kg, iv; assay type: ADME, organism-based; details: in vivo
[8] = Cmax in C57/BL6 mouse at 30 mg/kg, po; assay type: ADME, organism-based; design: dose 30 mg/kg, route oral; details: in vivo
[9] = Tmax in C57/BL6 mouse at 30 mg/kg, po; assay type: ADME, organism-based; details: in vivo
[10] = Half life in C57/BL6 mouse at 30 mg/kg, po; assay type: ADME, organism-based; details: in vivo
[11] = Oral bioavailability in C57/BL6 mouse at 30 mg/kg; assay type: ADME, organism-based; details: in vivo
[12] = Ratio of drug uptake in lung to plasma of C57/BL6 mouse at 3 mg/kg, iv or 30 mg/kg, po; assay type: ADME, organism-based
[13] = Protein binding in human plasma at 10 uM by LC/MS/MS based equilibrium dialysis analysis; assay type: ADME, cell-free; details: read-out: PPB
[14] = Protein binding in mouse plasma at 10 uM by LC/MS/MS based equilibrium dialysis analysis; assay type: ADME, cell-free; details: read-out: PPB (converted)
[15] = Apparent permeability in human Calu3 cells; assay type: ADME, cell-based, Calu-3
[16] = Efflux ratio of apparent permeability across basolateral to apical side over apical to basolateral side in human Calu3 cells; assay type: ADME, cell-based, Calu-3
Rattus norvegicus = species on record: Rattus norvegicus; test: Displacement of [35S]dATPalphaS to rat P2Y receptor at 10 uM after 60 mins by scintillation counting analysis relative to control
[17] = molecular target: Leukotriene B4 receptor 1 (Homo sapiens) (UniProt Q15722); test: Displacement of [3H]LTB4 to recombinant human LTB4 receptor at 10 uM after 60 mins by scintillation counting analysis relative to control
Chain of Leukotriene B4 receptor 1 (Homo sapiens) (Q15722 whole entry): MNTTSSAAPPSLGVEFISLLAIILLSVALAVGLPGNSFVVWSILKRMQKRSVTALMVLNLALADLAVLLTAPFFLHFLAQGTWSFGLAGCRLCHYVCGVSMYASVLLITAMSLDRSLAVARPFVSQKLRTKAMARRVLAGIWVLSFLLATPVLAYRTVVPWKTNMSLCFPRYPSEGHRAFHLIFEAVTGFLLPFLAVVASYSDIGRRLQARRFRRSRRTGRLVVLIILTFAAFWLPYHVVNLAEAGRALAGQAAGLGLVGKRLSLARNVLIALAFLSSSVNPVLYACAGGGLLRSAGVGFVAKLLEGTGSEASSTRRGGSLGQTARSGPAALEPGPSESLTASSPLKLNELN

Homo sapiens [18] = species on record: Homo sapiens; test: Inhibition of I2 receptor (unknown origin) at 10 uM relative to control
Bos taurus = species on record: Bos taurus; test: Inhibition of bovine PDE6 at 10 uM using [3H]cGMP as substrate after 60 mins by scintillation counting analysis relative to control
Homo sapiens [19] = species on record: Homo sapiens; test: Inhibition of BZD receptor (unknown origin) at 10 uM relative to control
[20] = Aqueous solubility of compound in fasted state stimulated intestinal fluid at pH 6.2; assay type: physicochemical; details: fasted state simulated intestinal fluid
[21] = Aqueous solubility of compound in fed state simulated intestinal fluid at pH 5.2; assay type: physicochemical
[22] = Aqueous solubility of compound in acetate buffer at pH 4.5; assay type: physicochemical
[23] = Aqueous solubility of compound in phosphate buffer at pH 6.8; assay type: physicochemical
[24] = Aqueous solubility of compound in 0.1 N HCl; assay type: physicochemical
Mus musculus [25] = test: (§1) Anti-inflammatory activity in po dosed C57BL/6 mouse model of cigarette smoke induced chronic obstructive pulmonary disease assessed as reduction in cellular infiltration in bronchoalveolar lavage administered once daily for 7 days 1 hr prior to first smoke exposure and measured on day 8 after last smoke exposure post single drug treatment by hemocytometry; assay type: functional, organism-based
Mus musculus [26] = test: as §1, with “in” for “in po dosed”, “total leukocyte count” for “reduction in cellular infiltration”, “lavage at 3 mg/kg, po” for “lavage”; assay type: functional
Mus musculus [27] = test: as §1, with “in” for “in po dosed”, “total leukocyte count” for “reduction in cellular infiltration”, “lavage at 10 mg/kg, po” for “lavage”; assay type: functional
Mus musculus [28] = test: as §1, with “in” for “in po dosed”, “total leukocyte count” for “reduction in cellular infiltration”, “lavage at 30 mg/kg, po” for “lavage”; assay type: functional
Mus musculus [29] = test: as §1, with “in” for “in po dosed”, “total leukocyte count” for “reduction in cellular infiltration”, “lavage at 100 mg/kg, po” for “lavage”; assay type: functional
Mus musculus [30] = test: as §1, with “in” for “in po dosed”, “neutrophil count” for “reduction in cellular infiltration”, “lavage at 3 mg/kg, po” for “lavage”, “Leishman's staining based assay” for “hemocytometry”; assay type: functional
Mus musculus [31] = test: as §1, with “in” for “in po dosed”, “neutrophil count” for “reduction in cellular infiltration”, “lavage at 10 mg/kg, po” for “lavage”, “Leishman's staining based assay” for “hemocytometry”; assay type: functional
Mus musculus [32] = test: as §1, with “in” for “in po dosed”, “neutrophil count” for “reduction in cellular infiltration”, “lavage at 30 mg/kg, po” for “lavage”, “Leishman's staining based assay” for “hemocytometry”; assay type: functional
Mus musculus [33] = test: as §1, with “in” for “in po dosed”, “neutrophil count” for “reduction in cellular infiltration”, “lavage at 100 mg/kg, po” for “lavage”, “Leishman's staining based assay” for “hemocytometry”; assay type: functional
Mus musculus [34] = test: as §1, with “in” for “in po dosed”, “macrophages count” for “reduction in cellular infiltration”, “lavage at 3 mg/kg, po” for “lavage”, “Leishman's staining based assay” for “hemocytometry”; assay type: functional
Mus musculus [35] = test: as §1, with “in” for “in po dosed”, “macrophages count” for “reduction in cellular infiltration”, “lavage at 10 mg/kg, po” for “lavage”, “Leishman's staining based assay” for “hemocytometry”; assay type: functional
Mus musculus [36] = test: as §1, with “in” for “in po dosed”, “macrophages count” for “reduction in cellular infiltration”, “lavage at 100 mg/kg, po” for “lavage”, “Leishman's staining based assay” for “hemocytometry”; assay type: functional
[37] = molecular target: All-trans-retinol dehydrogenase [NAD(+)] ADH1B (Homo sapiens, UniProt P00325); test: Inhibition of ADH1B (unknown origin) assessed as reduction in NADH production by spectrophotometric analysis
Chain of All-trans-retinol dehydrogenase [NAD(+)] ADH1B (P00325 whole entry): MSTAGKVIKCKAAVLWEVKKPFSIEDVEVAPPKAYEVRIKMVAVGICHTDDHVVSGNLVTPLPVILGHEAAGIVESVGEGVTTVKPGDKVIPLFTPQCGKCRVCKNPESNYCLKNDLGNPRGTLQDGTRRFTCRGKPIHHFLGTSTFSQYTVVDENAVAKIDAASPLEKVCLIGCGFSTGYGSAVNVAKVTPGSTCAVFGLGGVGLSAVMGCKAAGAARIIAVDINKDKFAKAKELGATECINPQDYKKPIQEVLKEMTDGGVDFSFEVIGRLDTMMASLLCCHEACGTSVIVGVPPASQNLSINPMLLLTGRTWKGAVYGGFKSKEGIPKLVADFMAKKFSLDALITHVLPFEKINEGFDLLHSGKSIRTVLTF

Chain of Alcohol dehydrogenase class-3 (P12711 whole entry): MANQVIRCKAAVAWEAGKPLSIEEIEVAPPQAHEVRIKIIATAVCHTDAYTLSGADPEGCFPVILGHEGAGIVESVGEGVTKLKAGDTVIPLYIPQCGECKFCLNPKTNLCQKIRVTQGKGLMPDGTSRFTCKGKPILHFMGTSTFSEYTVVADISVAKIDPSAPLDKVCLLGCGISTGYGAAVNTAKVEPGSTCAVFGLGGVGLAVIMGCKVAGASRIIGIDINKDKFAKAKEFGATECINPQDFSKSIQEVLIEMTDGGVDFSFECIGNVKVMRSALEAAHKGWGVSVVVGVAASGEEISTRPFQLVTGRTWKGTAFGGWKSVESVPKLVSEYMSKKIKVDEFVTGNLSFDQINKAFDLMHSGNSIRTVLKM

- IC50 [1]: 0.0091 µM
- remaining at 1 h, 0.1 µM [2]: 100%
- remaining at 1 h, 0.1 µM [3]: 83%
- remaining at 1 h, 0.1 µM [4]: 43%
- inhibition at 20 min, 10 µM (CYP2D6): 52%
- inhibition at 20 min, 10 µM (CYP3A4): 55%
- inhibition at 20 min, 10 µM (CYP2C9): 86%
- inhibition at 40 min, 10 µM (CYP2C19): 86%
- clearance [5]: 1.4 mL/min/kg
- Vd [6]: 0.41 L/kg
- half-life [7]: 3.4 h
- Cmax [8]: 8960 ng/mL
- Tmax [9]: 2 h
- half-life [10]: 6 h
- bioavailability [11]: 21%
- Kp [12]: 0.38
- fraction unbound at 10 µM [13]: < 0.005
- fraction unbound at 10 µM [14]: 0.015
- Papp [15]: 8.23 ×10⁻⁶ cm/s
- efflux ratio [16]: 0.8
- inhibition (Rattus norvegicus): 59%
- inhibition [17]: 64%
- inhibition (Homo sapiens [18]): 88%
- inhibition (Bos taurus): 60%
- inhibition (Homo sapiens [19]): 50%
- solubility [20]: 3.5 µg/mL (≈ 10.8 µM)
- solubility [21]: 0.6 µg/mL (≈ 1.86 µM)
- solubility [22]: 1.1 µg/mL (≈ 3.41 µM)
- solubility [23]: 7 µg/mL (≈ 21.7 µM)
- solubility [24]: 20 µg/mL (≈ 62 µM)
- IC50 [37]: 54 µM
SMILES: Clc1cc(-c2nnn[nH]2)ccc1-c1ccc(-n2ccnc2)cc1
- Activity (Mus musculus [25]): Dose-dependent effect
- Activity (Mus musculus [26]): 32%
- Activity (Mus musculus [27]): 41%
- Activity (Mus musculus [28]): 49%
- Activity (Mus musculus [29]): 53%
- Activity (Mus musculus [30]): 19%
- Activity (Mus musculus [31]): 25%
- Activity (Mus musculus [32]): 37%
- Activity (Mus musculus [33]): 47%
- Activity (Mus musculus [34]): 45%
- Activity (Mus musculus [35]): 59%
- Activity (Mus musculus [36]): 61%
